Drawing on US5801165A, “Antiinflammatory, immunosuppressive and antialleric 16, 17-alkylidioxy-steroids” (Rhone-Poulenc Rorer Limited, priority 1992, dated 1998), this text covers IC50 for 20 molecules.

The experiment has as its target T1, Rat thymus glucocorticoid receptor (Rattus norvegicus, UniProt P06536).
T1 construct: The supernatant cytosol is used as the source of receptor; from tissue; host or cells: thymus of male adrenalectomised rats, 100,000 g supernatant cytosol
T1 sequence (P06536 1-795): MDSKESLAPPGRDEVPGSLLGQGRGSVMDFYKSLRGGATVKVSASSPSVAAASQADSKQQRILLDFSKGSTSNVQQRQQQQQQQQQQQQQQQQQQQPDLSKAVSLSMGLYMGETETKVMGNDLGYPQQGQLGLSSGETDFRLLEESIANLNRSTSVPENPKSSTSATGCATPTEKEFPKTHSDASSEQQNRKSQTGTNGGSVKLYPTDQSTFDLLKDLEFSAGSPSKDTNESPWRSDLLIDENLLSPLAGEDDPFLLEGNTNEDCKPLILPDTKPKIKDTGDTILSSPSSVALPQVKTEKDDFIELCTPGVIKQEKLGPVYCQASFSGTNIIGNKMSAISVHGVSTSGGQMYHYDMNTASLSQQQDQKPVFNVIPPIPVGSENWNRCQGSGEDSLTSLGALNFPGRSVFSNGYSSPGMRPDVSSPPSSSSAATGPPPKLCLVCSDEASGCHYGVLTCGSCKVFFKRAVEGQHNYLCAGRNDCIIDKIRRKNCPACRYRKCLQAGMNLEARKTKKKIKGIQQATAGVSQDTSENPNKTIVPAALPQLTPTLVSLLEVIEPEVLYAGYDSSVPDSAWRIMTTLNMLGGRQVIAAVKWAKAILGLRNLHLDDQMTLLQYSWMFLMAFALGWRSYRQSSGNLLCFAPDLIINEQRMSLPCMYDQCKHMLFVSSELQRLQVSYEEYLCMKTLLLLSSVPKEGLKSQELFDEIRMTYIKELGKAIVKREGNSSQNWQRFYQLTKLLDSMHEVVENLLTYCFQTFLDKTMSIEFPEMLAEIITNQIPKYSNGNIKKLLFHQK
Briefly: Steroid binding to the rat thymus glucocorticoid receptor ([3H] dexamethasone displacement). An excerpt: GLUCOCORTICOID AGONIST ACTIVITY
STEROID BINDING TO THE RAT THYMUS GLUCOCORTICOID RECEPTOR
Thymi of male adrenalectomised rats are removed and homogenised in 3-(N-morpholino)propanesulphonic acid dithiothreitol buffer, and centrifuged at 100,000 g. The supernatant cytosol is used as the source of receptor. […] Bound [^3 H] dexamethasone is separated from free dexamethasone by a dextran coated charcoal technique and is quantified by liquid scintillation counting.

[1] abbreviates: 4 nM [3H] dexamethasone, 24 hours at 4° C., rat thymus cytosol, read-out: IC50 (concentration reducing [3H] dexamethasone binding by 50%).
Where [2] appears, read: read-out: IC50 (concentration reducing [3H] dexamethasone binding by 50%), 4 nM [3H] dexamethasone, 24 hours at 4° C., rat thymus cytosol.

pIC50: −log10 of the molar value. Like-named read-outs stand apart in the source and are kept apart here.

With `CCC[C@@H]1O[C@@H]2C[C@H]3[C@@H]4C[C@H](F)C5=CC(=O)CC[C@]5(C)[C@@]4(F)[C@@H](O)C[C@]3(C)[C@]2(SCF)O1` [(20R)-6α,9α-Difluoro-11β-hydroxy-16α,17α-butylidenedioxy-17β-fluoromethylthioandrost-4-en-3-one], the pIC50 under setting [1] was 8.52.

Consider `CCCC1O[C@@H]2C[C@H]3[C@@H]4CCC5=CC(=O)C=C[C@]5(C)[C@@]4(F)[C@@H](O)C[C@]3(C)[C@]2(SCC)O1` (stereo partly drawn) [(20R,S)-16α,17α-Butylidenedioxy-17β-ethylthio-9α-fluoro-11β-hydroxyandrosta-1,4-dien-3-one], for which the pIC50 under setting [1] was 8.39.

`CCC[C@@H]1O[C@@H]2C[C@H]3[C@@H]4CCC5=CC(=O)C=C[C@]5(C)[C@@]4(F)[C@@H](O)C[C@]3(C)[C@]2(SC)O1` [(20R)-16α,17α-Butylidenedioxy-9α-fluoro-11β-hydroxy-17β-(methylthio)androsta-1,4-dien-3-one]: the pIC50 under setting [1] is 8.77. Consider `CC1(C)O[C@@H]2C[C@H]3[C@@H]4C[C@H](F)C5=CC(=O)C=C[C@]5(C)[C@@]4(F)[C@@H](O)C[C@]3(C)[C@]2(SCF)O1` [6α,9α-Difluoro-11β-hydroxy-16α,17α-isopropylidenedioxy-17β-(fluoromethylthio)androsta-1,4-dien-3-one], for which the pIC50 under setting [1] is 8.39. The same measure, in the same setting: the same measure for `CC1(C)O[C@@H]2C[C@H]3[C@@H]4CCC5=CC(=O)C=C[C@]5(C)[C@@]4(F)[C@@H](O)C[C@]3(C)[C@]2(S(C)(=O)=O)O1` [9α-Fluoro-11β-hydroxy-16α,17α-isopropylidene-dioxy-17β-methylsulphonylandrosta-1,4-dien-3-one]: 8.42.

On to `CCC[C@@H]1O[C@@H]2C[C@H]3[C@@H]4CCC5=CC(=O)C=C[C@]5(C)[C@@]4(F)[C@@H](O)C[C@]3(C)[C@]2([S+](C)[O-])O1` (stereo partly drawn) [(20R)-9α-Fluoro-11β-hydroxy-16α,17α-butylidenedioxy-17β-methylsulphinylandrosta-1,4-dien-3-one], for which the pIC50 under setting [2] was 8.18.

In the case of `CCCC1O[C@@H]2C[C@H]3[C@@H]4CC(=O)C5=CC(=O)CC[C@]5(C)[C@@]4(F)[C@@H](O)C[C@]3(C)[C@]2(SC)O1` (stereo partly drawn) [(20S)-16α,17α-butylidenedioxy-6α,9α-fluoro-11β-hydroxy-(methylthio)androst-4-en-3,6-dione], the pIC50 under setting [1] was 8.47. On the same count and under the same terms, the same measure for `CC1(C)O[C@@H]2C[C@H]3[C@@H]4CCC5=CC(=O)C=C[C@]5(C)[C@@]4(F)[C@@H](O)C[C@]3(C)[C@]2(Sc2ccccn2)O1` [9α-Fluoro-11β-hydroxy-16α,17α-isopropylidenedioxy-17β-(2-pyridylthio)androsta-1,4-dien-3-one]: 7.57; for `C/C=C/[C@@H]1O[C@@H]2C[C@H]3[C@@H]4CCC5=CC(=O)C=C[C@]5(C)[C@@]4(F)[C@@H](O)C[C@]3(C)[C@]2(SC)O1` [(20R)-16α,17α-[(E)-2-Butenylidenedioxy]-9α-fluoro-11β-hydroxy-17β-(methylthio)androsta-1,4-dien-3-one]: 8.59. Same read-out and setting: the same measure for `CCC[C@@H]1O[C@@H]2C[C@H]3[C@@H]4CC(=O)C5=CC(=O)C=C[C@]5(C)[C@@]4(F)[C@@H](O)C[C@]3(C)[C@]2(SC)O1` [(20R)-16α,17α-butylidenedioxy-9α-fluoro-11β-hydroxy-17β-(methylthio)androsta-1,4-diene-3,6-dione]: 8.62.

Regarding `CCC[C@@H]1O[C@@H]2C[C@H]3[C@@H]4C[C@H](F)C5CC(=O)CC[C@]5(C)[C@@]4(F)[C@@H](O)C[C@]3(C)[C@]2(SC)O1` (stereo partly drawn) [(20R)-16α,17α-butylidenedioxy-6α,9α-difluoro-11β-hydroxy-17β-(methylthio)androstan-3-one], under setting [1], the pIC50 was 8.59. Still for that read-out and setting: in the case of `CCC[C@H]1O[C@@H]2C[C@H]3[C@@H]4C[C@H](F)C5=CC(=O)CC[C@]5(C)[C@@]4(F)[C@@H](O)C[C@]3(C)[C@]2(SC)O1` [(20S)-16α,17α-Butylidenedioxy-6α,9α-difluoro-11β-hydroxy-17β-(methylthio)androst-4-ene-3-one] it was 8.54.

For `CCC[C@@H]1O[C@@H]2C[C@H]3[C@@H]4CCC5=CC(=O)C=C[C@]5(C)[C@@]4(F)[C@@H](O)C[C@]3(C)[C@]2(SCF)O1` [(20R)-16α,17α-Butylidenedioxy-9α-fluoro-11β-hydroxy-17β-(fluoromethylthio)androsta-1,4-dien-3-one], under setting [1], the pIC50 was 8.12. Regarding `CCC[C@H]1O[C@@H]2C[C@H]3[C@@H]4C[C@H](F)C5=CC(=O)C=C[C@]5(C)[C@@]4(F)[C@@H](O)C[C@]3(C)[C@]2(SCF)O1` [(20S)-6α,9α-difluoro-11β-hydroxy-16α,17α-butylidene-fluoromethylthioandrosta-1,4-dien-3-one], under setting [2], the pIC50 is 8.60. As to `CS[C@@]12OC(C)(C)O[C@@H]1C[C@H]1[C@@H]3C[C@H](F)C4=CC(=O)C=C[C@]4(C)[C@@]3(F)[C@@H](O)C[C@@]12C` [6α,9α-Difluoro-11β-hydroxy-16α,17α-isopropylidenedioxy-17β-(methylthio)androsta-1,4-dien-3-one], under setting [1], the pIC50 is 8.49.

Take `CS[C@@]12OC(C)(C)O[C@@H]1C[C@H]1[C@@H]3CCC4=CC(=O)C=C[C@]4(C)[C@@]3(F)[C@@H](O)C[C@@]12C` [9α-Fluoro-11β-hydroxy-16α,17α-isopropylidenedioxy-17β-(methylthio)androsta-1,4-dien-3-one]: the pIC50 was 8.80. Still for that read-out and setting: the same measure for `CCC[C@@H]1O[C@@H]2C[C@H]3[C@@H]4C[C@H](F)C5=CC(=O)C=C[C@]5(C)[C@@]4(F)[C@@H](O)C[C@]3(C)[C@]2(SCF)O1` [(20R)-16α,17α-Butylidenedioxy-6α,9α-difluoro-11β-hydroxy-17β-(fluoromethylthio)androsta-1,4-dien-3-one]: 8.57; for `CCC[C@@H]1O[C@@H]2C[C@H]3[C@@H]4C[C@H](F)C5=CC(=O)C=C[C@]5(C)[C@@]4(F)[C@@H](O)C[C@]3(C)[C@]2(SC)O1` [(20R)-16α,17α-butylidenedioxy-6α,9α-difluoro-11β-hydroxy-17β-(methylthio)-androsta-1,4-dien-3-one]: 8.43; for `CCCC1O[C@@H]2C[C@H]3[C@@H]4CCC5=CC(=O)C=C[C@]5(C)[C@@]4(F)[C@@H](O)C[C@]3(C)[C@]2(Sc2ccccn2)O1` (stereo partly drawn) [(20R,S)-16α,17α-Butylidenedioxy-9α-fluoro-11β-hydroxy-17β-(2-pyridylthio)androsta-1,4-dien-3-one]: 7.95. Turning to `CCCC1O[C@@H]2C[C@H]3[C@@H]4CCC5=CC(=O)C=C[C@]5(C)[C@@]4(F)[C@@H](O)C[C@]3(C)[C@]2(SC(C)C)O1` (stereo partly drawn) [(20R,S)-16α,17α-Butylidenedioxy-9α-fluoro-11β-hydroxy-17β-(isopropylthio)androsta-1,4-dien-3-one], the pIC50 under setting [1] is 8.26.
